Patent publication US20060019954A1, “Method for reducing the likelihood of the occurrence of cardiac arrhythmias” (Cedars-Sinai Medical Center, priority 2004, published 2006)

Test system: SCD canine subjects (myocardial infarction, complete AV block, NGF to left stellate ganglion)
Assay: Effect of BRL 37344 infusion in the canine sudden cardiac death (SCD) model
Format: in vivo
Source text: The canine SCD model is created by inducing myocardial hyperinnervation within the left stellate ganglion in combination with creating a complete atrioventricular (AV) block and inducing a relatively mild myocardial infarction (MI). The AV block is typically created by ablating the AV node of the heart using an ablation catheter and the MI is induced by ligating the left anterior descending portion of the coronary artery. Myocardial hyperinnervation is stimulated by application of nerve growth factor (NGF) or other neurtrophic vectors to the left stellate ganglion. Alternatively, electrical stimulation signals may be applied to the left stellate ganglion.
Four canine groups were evaluated in this study. MI was created in each of the canine subjects by ligating the left anterior descending coronary artery. Complete AV block was created by radiofrequency ablation of the atrioventricular junction in the MI, SCD and RSG Groups. An ICD was used to monitor for the occurrence of ventricular arrhythmias. Nerve growth factor (NGF) was infused by an osmotic pump throughout a 4-5 week period in the left stellate ganglion (LSG) of the canine subjects in the SCD Group and in the right stellate ganglion (RSG) of the canine subjects in the RSG Group. The canine subjects in the SCD Group was characterized by a high incidence of SCD (44%), long QTc intervals and frequent episodes of ventricular tachycardia, whereas the RSG Group had no SCD, short QTc intervals and few episodes of VT.
Two canine groups were studied and compared to ascertain the effect of a β3 adrenergic receptor agonist (BRL 37344) on the incidence of phase-2 VT, typically leading to sudden cardiac death. Table 4 compares the incidence of phase-2 VT, QTc intervals and the size of myocardial infarction (“MI”) of SCD canine subjects and SCD canine subjects receiving BRL 37344 infusion.
β3 adrenergic receptor agonist BRL 37344 was infused subcutaneously by an osmotic pump (2 μg/kg/hr) for two weeks in two canine subjects with myocardial infarction, complete atrioventricular block and nerve growth factor to the left stellate ganglion (BRL Group). Surface ECG was continuously recorded by Data Sciences International (DSI) and analyzed manually.

C[C@H](Cc1ccc(OCC(=O)O)cc1)NC[C@H](O)c1cccc(Cl)c1 [BRL 37344]
Effect on incidence of ventricular arrhythmias (2 μg/kg/hr by osmotic pump for a two week period, mammalian SCD models): effective in significantly reducing the incidence of ventricular arrhythmias
Incidence of Phase-2 VT (SCD canine subjects, BRL 37344 2 μg/kg/hr subcutaneous by osmotic pump for two weeks, n=2, SCD Group without infusion 2.0 ± 2.0 per day): 0.08±0.11 per day
QTc Interval (SCD canine subjects, BRL 37344 2 μg/kg/hr subcutaneous infusion, throughout follow-up, SCD Group without infusion 400 ms): 350 ms
Size of MI (SCD canine subjects, BRL 37344 2 μg/kg/hr subcutaneous infusion, SCD Group without infusion 17 ± 4%): 16±1.2%
Phase-2 VT episodes, first canine subject of the BRL Group (short runs of VT episodes observed from day 36 to day 44 after surgery): no phase-2 VT for five weeks
Occurrence of sudden cardiac death during follow-up (two canine subjects of the BRL Group, followed up for two months): without SCD
Phase-2 VT episodes, second canine subject of the BRL Group (two months follow-up): no phase-2 VT episodes
